Where “and” joins values, the source holds several entries; their conditions need not be identical. Equal values may be shown once. Toxic doses and inconclusive results are not listed. Rule for the calls: active = survival T/C of 150% or more; inactive = T/C below 125% in these data.
Tested on: CD2F1 mice, L1210 leukemia ip, survival T/C
Assay: NCI In Vivo Anticancer Drug Screen. Data for tumor model L1210 Leukemia (intraperitoneal) in CD2F1 (CDF1) mice
Settings: higher = longer survival
Method in brief: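 Transplantable tumor in mice; compound-treated vs vehicle-treated groups. Read-out = treated/control ratio of the measured endpoint.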

[1] = endpoint: mean survival time, dose: 100.0 mg/kg/injection, schedule: Q01DX001 (ip), vehicle: saline with Tween-80
[2] = endpoint: mean survival time, dose: 200.0 mg/kg/injection, schedule: Q01DX001 (ip), vehicle: saline with Tween-80
[3] = endpoint: mean survival time, dose: 100.0 mg/kg/injection, schedule: Q04DX002 (ip), vehicle: saline with Tween-80
[4] = endpoint: mean survival time, dose: 200.0 mg/kg/injection, schedule: Q04DX002 (ip), vehicle: saline with Tween-80
[5] = endpoint: mean survival time, dose: 400.0 mg/kg/injection, schedule: Q04DX002 (ip), vehicle: saline with Tween-80
[6] = endpoint: mean survival time, dose: 100.0 mg/kg/injection, schedule: Q01DX009 (ip), vehicle: saline with Tween-80
[7] = endpoint: mean survival time, dose: 100.0 mg/kg/injection, schedule: Q04DX003 (ip), vehicle: saline with Tween-80
[8] = endpoint: mean survival time, dose: 200.0 mg/kg/injection, schedule: Q01DX009 (ip), vehicle: saline with Tween-80
[9] = endpoint: mean survival time, dose: 200.0 mg/kg/injection, schedule: Q04DX003 (ip), vehicle: saline with Tween-80
[10] = endpoint: mean survival time, dose: 400.0 mg/kg/injection, schedule: Q01DX001 (ip), vehicle: saline with Tween-80
[11] = endpoint: mean survival time, dose: 400.0 mg/kg/injection, schedule: Q01DX009 (ip), vehicle: saline with Tween-80
[12] = endpoint: mean survival time, dose: 400.0 mg/kg/injection, schedule: Q04DX003 (ip), vehicle: saline with Tween-80
[13] = endpoint: mean survival time, dose: 100.0 mg/kg/injection, schedule: Q01DX009 (ip), vehicle: saline
[14] = endpoint: mean survival time, dose: 200.0 mg/kg/injection, schedule: Q01DX009 (ip), vehicle: saline
[15] = endpoint: mean survival time, dose: 100.0 mg/kg/injection, schedule: Q04DX003 (ip), vehicle: saline
[16] = endpoint: mean survival time, dose: 200.0 mg/kg/injection, schedule: Q04DX003 (ip), vehicle: saline
[17] = endpoint: mean survival time, dose: 400.0 mg/kg/injection, schedule: Q04DX003 (ip), vehicle: saline

Measured: T/C

CCOP(=O)(OCC)C1=C(CC)CC1
inactive: endpoint: mean survival time, dose: 75.0 mg/kg/injection, schedule: Q01DX001 (ip), vehicle: other 98 % of control

Cc1ccc(S(=O)(=O)N/N=C(\C(=O)O)c2ccccc2)cc1
inactive: endpoint: mean survival time, dose: 12.5 mg/kg/injection, schedule: Q01DX009 (ip), vehicle: Klucel (hydroxypropylcellulose) (HPC) 95 % of control | endpoint: mean survival time, dose: 25.0 mg/kg/injection, schedule: Q01DX009 (ip), vehicle: Klucel (hydroxypropylcellulose) (HPC) 96 % of control | endpoint: mean survival time, dose: 50.0 mg/kg/injection, schedule: Q01DX009 (ip), vehicle: Klucel (hydroxypropylcellulose) (HPC) 96 % of control | endpoint: mean survival time, dose: 100.0 mg/kg/injection, schedule: Q01DX009 (ip), vehicle: Klucel (hydroxypropylcellulose) (HPC) 95 % of control | endpoint: mean survival time, dose: 200.0 mg/kg/injection, schedule: Q01DX009 (ip), vehicle: Klucel (hydroxypropylcellulose) (HPC) 93 % of control

CCCCCCCCCCOc1ccc(OCCCCCCCCC)cc1
inactive: [1] 86 % of control | [2] 90 % of control

O=C1C=CC(n2cc(F)c(=O)[nH]c2=O)O1 (centres undefined)
active: endpoint: median survival time, dose: 50.0 mg/kg/injection, schedule: Q01DX009 (ip), vehicle: saline 150 % of control and 162 % of control
inactive: endpoint: median survival time, dose: 6.25 mg/kg/injection, schedule: Q01DX009 (ip), vehicle: saline with Tween-80 122 % of control | endpoint: median survival time, dose: 6.25 mg/kg/injection, schedule: Q01DX009 (ip), vehicle: saline 113 % of control and 115 % of control | endpoint: median survival time, dose: 12.5 mg/kg/injection, schedule: Q01DX009 (ip), vehicle: saline 121 % of control | endpoint: median survival time, dose: 25.0 mg/kg/injection, schedule: Q01DX009 (ip), vehicle: saline 122 % of control | endpoint: median survival time, dose: 100.0 mg/kg/injection, schedule: Q01DX009 (ip), vehicle: saline with Tween-80 91 % of control | endpoint: median survival time, dose: 100.0 mg/kg/injection, schedule: Q01DX009 (ip), vehicle: saline 96 % of control and 108 % of control

CCCCCCCCc1ccc(NNC(N)=S)cc1
inactive: endpoint: mean survival time, dose: 1.56 mg/kg/injection, schedule: Q01DX009 (ip), vehicle: saline 93 % of control and 98 % of control and 101 % of control | endpoint: mean survival time, dose: 3.12 mg/kg/injection, schedule: Q01DX009 (ip), vehicle: saline 96 % of control (2×) and 106 % of control | endpoint: mean survival time, dose: 6.25 mg/kg/injection, schedule: Q01DX009 (ip), vehicle: saline 96 % of control and 97 % of control and 104 % of control | endpoint: mean survival time, dose: 12.5 mg/kg/injection, schedule: Q01DX009 (ip), vehicle: saline 97 % of control (2×) and 101 % of control

CCNC(=O)C(=O)NCC
inactive: [3] 103 % of control | [4] 100 % of control | [5] 103 % of control

N#[N+]c1cnc([O-])[nH]c1=O
inactive: endpoint: mean survival time, dose: 0.5 mg/kg/injection, schedule: Q07DX Z (ip), vehicle: saline 106 % of control | endpoint: mean survival time, dose: 1.0 mg/kg/injection, schedule: Q07DX Z (ip), vehicle: saline 112 % of control | endpoint: mean survival time, dose: 2.0 mg/kg/injection, schedule: Q03DX Z (ip), vehicle: saline 112 % of control | endpoint: mean survival time, dose: 2.0 mg/kg/injection, schedule: Q07DX Z (ip), vehicle: saline 118 % of control | endpoint: mean survival time, dose: 4.0 mg/kg/injection, schedule: Q07DX Z (ip), vehicle: saline 116 % of control | endpoint: mean survival time, dose: 8.0 mg/kg/injection, schedule: Q01DX001 (ip), vehicle: saline 112 % of control | endpoint: mean survival time, dose: 16.0 mg/kg/injection, schedule: Q01DX001 (ip), vehicle: saline 112 % of control | endpoint: mean survival time, dose: 32.0 mg/kg/injection, schedule: Q01DX001 (ip), vehicle: saline 115 % of control and 117 % of control

C/C=C(\C)C(=O)OC1C(C)C2(O)C(C=C(CO)CC3(O)C(=O)C(C)=CC32)C2C(C)(C)C12OC(=O)CCCCCCCCC (centres undefined)
inactive: endpoint: mean survival time, dose: 125.0 micrograms/kg/injection, schedule: Q01DX009 (ip), vehicle: saline + alcohol 90 % of control | endpoint: mean survival time, dose: 250.0 micrograms/kg/injection, schedule: Q01DX009 (ip), vehicle: saline + alcohol 95 % of control

Clc1nc(Oc2ccccc2)nc(-c2cn(-c3ccccc3)c3ccccc23)n1
inactive: [1] 98 % of control | [6] 95 % of control | [7] 102 % of control | [2] 102 % of control | [8] 101 % of control | [9] 98 % of control | [10] 102 % of control | [11] 97 % of control | [12] 101 % of control

Cc1cccc(SC(=O)Nc2ccc(Cl)cc2C)c1
inactive: [6] 95 % of control | [8] 95 % of control

N#CC(c1ccccc1)C(CC(=O)c1ccccc1)c1ccccc1 (centres undefined)
inactive: [6] 88 % of control | [7] 100 % of control | [8] 88 % of control | [9] 96 % of control | [12] 103 % of control

CN(CCSSCCN(C)/N=C/c1ccccc1)/N=C/c1ccccc1
inactive: [7] 97 % of control | [9] 101 % of control | [12] 101 % of control

O=C1CCC(=O)ON=c2ccc(cc2)=NO1
inactive: endpoint: mean survival time, dose: 50.0 mg/kg/injection, schedule: Q01DX009 (ip), vehicle: saline 98 % of control | [13] 102 % of control | [14] 90 % of control

Nc1nc(N)c(-c2ccc(Cl)cc2)c(/C=C/C=C/c2ccc([N+](=O)[O-])cc2)n1
inactive: endpoint: mean survival time, dose: 50.0 mg/kg/injection, schedule: Q01DX001 (ip), vehicle: saline with Tween-80 97 % of control | [1] 92 % of control | [2] 101 % of control

CC(=O)OCC1OC(OC(C)=O)C(NC(=O)Nc2cccc(N)c2)C(OC(C)=O)C1OC(C)=O (centres undefined)
inactive: endpoint: mean survival time, dose: 5.0 mg/kg/injection, schedule: Q04DX003 (ip), vehicle: water 102 % of control | endpoint: mean survival time, dose: 10.0 mg/kg/injection, schedule: Q04DX003 (ip), vehicle: water 96 % of control | endpoint: mean survival time, dose: 20.0 mg/kg/injection, schedule: Q04DX003 (ip), vehicle: water 96 % of control | endpoint: mean survival time, dose: 40.0 mg/kg/injection, schedule: Q04DX003 (ip), vehicle: water 96 % of control | endpoint: mean survival time, dose: 80.0 mg/kg/injection, schedule: Q04DX003 (ip), vehicle: water 98 % of control

Nc1ccc(I)cc1F
inactive: [7] 100 % of control | [9] 104 % of control | [12] 100 % of control

COc1cc(CCN2CC3C(C(=O)O)C4C=CC3(C2)O4)ccc1OCc1ccccc1 (centres undefined)
inactive: [3] 95 % of control | [4] 95 % of control | [5] 98 % of control

O=C(/C(=N\N=C\c1c(O)ccc2ccccc12)c1ccccc1)c1ccccc1
inactive: [6] 93 % of control | [8] 90 % of control | [11] 92 % of control

CN1C(=O)c2ccccc2C1(/N=C/c1ccccc1)c1ccccc1 (centres undefined)
inactive: [7] 96 % of control | [9] 96 % of control | [12] 96 % of control

C(=C1c2ccccc2-c2ccccc21)c1cccnc1
inactive: [6] 98 % of control | [7] 101 % of control | [8] 102 % of control | [9] 101 % of control | [11] 88 % of control | [12] 95 % of control

O=C(Nc1ccccc1F)c1ccccc1Cl
inactive: [13] 98 % of control | [15] 106 % of control | [14] 92 % of control | [16] 104 % of control | endpoint: mean survival time, dose: 400.0 mg/kg/injection, schedule: Q01DX009 (ip), vehicle: saline 98 % of control | [17] 97 % of control

N=c1nc(N)nc(N)n1-c1ccccc1
inactive: endpoint: mean survival time, dose: 50.0 mg/kg/injection, schedule: Q01DX009 (ip), vehicle: saline with Tween-80 98 % of control | [6] 102 % of control | [8] 102 % of control

c1ccc(CCN2CCCCC2)nc1
inactive: endpoint: mean survival time, dose: 3.13 mg/kg/injection, schedule: Q04DX003 (ip), vehicle: saline with Tween-80 93 % of control | endpoint: mean survival time, dose: 6.25 mg/kg/injection, schedule: Q04DX003 (ip), vehicle: saline with Tween-80 93 % of control

CCCCNC(=O)C1CC2c3cccc4c3C(CN4)CC2N(C)C1 (centres undefined)
inactive: endpoint: mean survival time, dose: 50.0 mg/kg/injection, schedule: Q04DX003 (ip), vehicle: saline with Tween-80 94 % of control | [7] 88 % of control

CN1C(=O)[N+]2(CCCCC2)N=C1[O-]
inactive: [6] 96 % of control | [15] 91 % of control | [8] 102 % of control | [16] 97 % of control | [11] 106 % of control | [17] 95 % of control

O=C(c1ccccc1)C12CC3CC1C2C3
inactive: [15] 97 % of control | [16] 100 % of control | [17] 89 % of control

N#CC1CCCC[N-]1.[NH-]CC[N-]CC[NH-].[Pt+4] (centres undefined)
inactive: endpoint: mean survival time, dose: 12.5 mg/kg/injection, schedule: Q01DX009 (ip), vehicle: water 93 % of control | endpoint: mean survival time, dose: 25.0 mg/kg/injection, schedule: Q01DX009 (ip), vehicle: water 95 % of control | endpoint: mean survival time, dose: 50.0 mg/kg/injection, schedule: Q01DX009 (ip), vehicle: water 97 % of control | endpoint: mean survival time, dose: 100.0 mg/kg/injection, schedule: Q01DX009 (ip), vehicle: water 88 % of control

CC(CCC(=O)O)C1CCC2C3CCC4CC(O)CCC4(C)C3CC(O)C12C (centres undefined)
inactive: [1] 104 % of control and 94 % of control | [2] 101 % of control | [10] 92 % of control
